Key:
Format in all cases: functional
NCI-H322M = assay: Growth inhibition of human NCI-H322M cells assessed as cell growth at 3X10'-5 M after 48 hrs by sulforhodamine B assay; settings: read-out: Activity
U-251 [1] = assay: Growth inhibition of human U251 cells assessed as cell growth at 3X10'-7 M after 48 hrs by sulforhodamine B assay; settings: U-251, 48 h, read-out: Activity
SNB-75 = assay: Growth inhibition of human SNB75 cells assessed as cell growth at 3X10'-6 M after 48 hrs by sulforhodamine B assay; settings: SNB-75, 48 h, read-out: Activity
HOP-92 [2] = assay: Growth inhibition of human HOP92 cells assessed as cell growth at 3X10'-9 M after 48 hrs by sulforhodamine B assay; settings: HOP-92, 48 h, read-out: Activity
ACHN [3] = assay: Growth inhibition of human ACHN cells assessed as cell growth at 3X10'-7 M after 48 hrs by sulforhodamine B assay; settings: read-out: Activity
KM12 [4] = assay: Growth inhibition of human KM12 cells assessed as cell growth at 3X10'-9 M after 48 hrs by sulforhodamine B assay; settings: KM12, 48 h, read-out: Activity
KM12 [5] = assay: Growth inhibition of human KM12 cells assessed as cell growth at 3X10'-8 M after 48 hrs by sulforhodamine B assay; settings: KM12, 48 h, read-out: Activity
UACC-62 = assay: Growth inhibition of human UACC62 cells assessed as cell growth at 3X10'-5 M after 48 hrs by sulforhodamine B assay; settings: UACC-62, 48 h, read-out: Activity
NCI-H23 = assay: Growth inhibition of human NCI-H23 cells assessed as cell growth at 3X10'-7 M after 48 hrs by sulforhodamine B assay; settings: NCI-H23, 48 h, read-out: Activity
ACHN [6] = assay: Growth inhibition of human ACHN cells assessed as cell growth at 3X10'-5 M after 48 hrs by sulforhodamine B assay; settings: read-out: Activity
[7] = Growth inhibition of human NCI-ADR-RES cells assessed as cell growth at 3X10'-5 M after 48 hrs by sulforhodamine B assay; settings: read-out: Activity
PC-3 = assay: Growth inhibition of human PC3 cells assessed as cell growth at 3X10'-7 M after 48 hrs by sulforhodamine B assay; settings: PC-3, 48 h, read-out: Activity
T47D [8] = assay: Growth inhibition of human T47D cells assessed as cell growth at 3X10'-9 M after 48 hrs by sulforhodamine B assay; settings: read-out: Activity
U-251 [9] = assay: Growth inhibition of human U251 cells assessed as cell growth at 3X10'-5 M after 48 hrs by sulforhodamine B assay; settings: U-251, 48 h, read-out: Activity
BT-549 = assay: Growth inhibition of human BT549 cells assessed as cell growth at 3X10'-7 M after 48 hrs by sulforhodamine B assay; settings: BT-549, 48 h, read-out: Activity
OVCAR-4 = assay: Growth inhibition of human OVCAR4 cells assessed as cell growth at 3X10'-8 M after 48 hrs by sulforhodamine B assay; settings: OVCAR-4, 48 h, read-out: Activity
MOLT-4 [10] = assay: Growth inhibition of human MOLT4 cells assessed as cell growth at 3X10'-9 M after 48 hrs by sulforhodamine B assay; settings: MOLT-4, 48 h, read-out: Activity
[11] = Growth inhibition of human HCC2998 cells assessed as cell growth at 3X10'-5 M after 48 hrs by sulforhodamine B assay; settings: HCC 2998, 48 h, read-out: Activity
HT-29 [12] = assay: Growth inhibition of human HT-29 cells assessed as cell growth at 3X10'-8 M after 48 hrs by sulforhodamine B assay; settings: HT-29, 48 h, read-out: Activity
Malme-3M = assay: Growth inhibition of human MALME-3M cells assessed as cell growth at 3X10'-9 M after 48 hrs by sulforhodamine B assay; settings: read-out: Activity
M14 = assay: Growth inhibition of human M14 cells assessed as cell growth at 3X10'-9 M after 48 hrs by sulforhodamine B assay; settings: M14, 48 h, read-out: Activity
SK-MEL-2 = assay: Growth inhibition of human SK-MEL-2 cells assessed as cell growth at 3X10'-7 M after 48 hrs by sulforhodamine B assay; settings: SK-MEL-2, 48 h, read-out: Activity
T47D [13] = assay: Growth inhibition of human T47D cells assessed as cell growth at 3X10'-5 M after 48 hrs by sulforhodamine B assay; settings: read-out: Activity
[14] = Growth inhibition of human NCI-ADR-RES cells assessed as cell growth at 3X10'-8 M after 48 hrs by sulforhodamine B assay; settings: read-out: Activity
HT-29 [15] = assay: Growth inhibition of human HT-29 cells assessed as cell growth at 3X10'-6 M after 48 hrs by sulforhodamine B assay; settings: HT-29, 48 h, read-out: Activity
UACC-257 = assay: Growth inhibition of human UACC257 cells assessed as cell growth at 3X10'-7 M after 48 hrs by sulforhodamine B assay; settings: UACC-257, 48 h, read-out: Activity
HCT-116 = assay: Growth inhibition of human HCT116 cells assessed as cell growth at 3X10'-5 M after 48 hrs by sulforhodamine B assay; settings: HCT-116, 48 h, read-out: Activity
HT-29 [16] = assay: Growth inhibition of human HT-29 cells assessed as cell growth at 3X10'-7 M after 48 hrs by sulforhodamine B assay; settings: HT-29, 48 h, read-out: Activity
HOP-92 [17] = assay: Growth inhibition of human HOP92 cells assessed as cell growth at 3X10'-5 M after 48 hrs by sulforhodamine B assay; settings: HOP-92, 48 h, read-out: Activity
MCF7 = assay: Growth inhibition of human MCF7 cells assessed as cell growth at 3X10'-5 M after 48 hrs by sulforhodamine B assay; settings: MCF7, 48 h, read-out: Activity
SNB-19 = assay: Growth inhibition of human SNB19 cells assessed as cell growth at 3X10'-6 M after 48 hrs by sulforhodamine B assay; settings: SNB-19, 48 h, read-out: Activity
A498 = assay: Growth inhibition of human A498 cells assessed as cell growth at 3X10'-9 M after 48 hrs by sulforhodamine B assay; settings: A498, 48 h, read-out: Activity
KM12 [18] = assay: Growth inhibition of human KM12 cells assessed as cell growth at 3X10'-5 M after 48 hrs by sulforhodamine B assay; settings: KM12, 48 h, read-out: Activity
MOLT-4 [19] = assay: Growth inhibition of human MOLT4 cells assessed as cell growth at 3X10'-8 M after 48 hrs by sulforhodamine B assay; settings: MOLT-4, 48 h, read-out: Activity
RPMI-8226 = assay: Growth inhibition of human RPMI8226 cells assessed as cell growth at 3X10'-9 M after 48 hrs by sulforhodamine B assay; settings: RPMI-8226, 48 h, read-out: Activity
SN12C = assay: Growth inhibition of human SN12C cells assessed as cell growth at 3X10'-9 M after 48 hrs by sulforhodamine B assay; settings: read-out: Activity
MDA-MB-468 = assay: Growth inhibition of human MDA-MB-468 cells assessed as cell growth at 3X10'-7 M after 48 hrs by sulforhodamine B assay; settings: MDA-MB-468, 48 h, read-out: Activity

Compound	growth at 30 µM (NCI-H322M) [%]	growth at 0.3 µM (U-251 [1]) [%]	growth at 3 µM (SNB-75) [%]	growth at 0.003 µM (HOP-92 [2]) [%]	growth at 0.3 µM (ACHN [3]) [%]	growth at 0.003 µM (KM12 [4]) [%]	growth at 0.03 µM (KM12 [5]) [%]	growth at 30 µM (UACC-62) [%]	growth at 0.3 µM (NCI-H23) [%]	growth at 30 µM (ACHN [6]) [%]	growth at 30 µM [7] [%]	growth at 0.3 µM (PC-3) [%]	growth at 0.003 µM (T47D [8]) [%]	growth at 30 µM (U-251 [9]) [%]	growth at 0.3 µM (BT-549) [%]	growth at 0.03 µM (OVCAR-4) [%]	growth at 0.003 µM (MOLT-4 [10]) [%]	growth at 30 µM [11] [%]	growth at 0.03 µM (HT-29 [12]) [%]	growth at 0.003 µM (Malme-3M) [%]	other results
COc1cc(-c2nn(-c3cccc(NC(=O)Nc4ccc(Cl)c(C(F)(F)F)c4)c3)cc2-c2ccncc2)ccc1Cl	-17	90	24	68	97	103	101	-73	97	-4	-5	80	101	-58	109	96	104	-48	106	112	growth at 0.003 µM (M14): 106%; growth at 0.3 µM (SK-MEL-2): 111%; growth at 30 µM (T47D [13]): 8%; growth at 0.03 µM [14]: 108%; growth at 3 µM (HT-29 [15]): 10%; growth at 0.3 µM (UACC-257): 91%; growth at 30 µM (HCT-116): -63%; growth at 0.3 µM (HT-29 [16]): 102%; growth at 30 µM (HOP-92 [17]): -46%; growth at 30 µM (MCF7): 2%; growth at 3 µM (SNB-19): 19%; growth at 0.003 µM (A498): 90%; growth at 30 µM (KM12 [18]): -79%; growth at 0.03 µM (MOLT-4 [19]): 106%; growth at 0.003 µM (RPMI-8226): 102%; growth at 0.003 µM (SN12C): 95%; growth at 0.3 µM (MDA-MB-468): 81%
O=C(Nc1cccc(-n2cc(-c3ccncc3)c(-c3ccc(Cl)c(O)c3)n2)c1)Nc1ccc(Cl)c(Cl)c1	11	100	20	98	96	97	92	-53	102	1	6	81	97	-28	106	102	98	-27	104	92	growth at 0.003 µM (M14): 93%; growth at 0.3 µM (SK-MEL-2): 111%; growth at 30 µM (T47D [13]): -9%; growth at 0.03 µM [14]: 97%; growth at 3 µM (HT-29 [15]): 60%; growth at 0.3 µM (UACC-257): 93%; growth at 30 µM (HCT-116): -39%; growth at 0.3 µM (HT-29 [16]): 110%; growth at 30 µM (HOP-92 [17]): -31%; growth at 30 µM (MCF7): 2%; growth at 3 µM (SNB-19): 23%; growth at 0.003 µM (A498): 103%; growth at 30 µM (KM12 [18]): -56%; growth at 0.03 µM (MOLT-4 [19]): 99%; growth at 0.003 µM (RPMI-8226): 103%; growth at 0.003 µM (SN12C): 93%; growth at 0.3 µM (MDA-MB-468): 76%
O=C(Nc1cccc(-n2cc(-c3ccncc3)c(-c3ccc(Cl)c(O)c3)n2)c1)Nc1cccc(C(F)(F)F)c1	19	97	53	85	94	94	95	-67	96	7	7	82	92	-48	102	107	97	1	99	96	growth at 0.003 µM (M14): 97%; growth at 0.3 µM (SK-MEL-2): 107%; growth at 30 µM (T47D [13]): 7%; growth at 0.03 µM [14]: 97%; growth at 3 µM (HT-29 [15]): 96%; growth at 0.3 µM (UACC-257): 92%; growth at 30 µM (HCT-116): -34%; growth at 0.3 µM (HT-29 [16]): 111%; growth at 30 µM (HOP-92 [17]): -33%; growth at 30 µM (MCF7): 2%; growth at 3 µM (SNB-19): 36%; growth at 0.003 µM (A498): 92%; growth at 30 µM (KM12 [18]): 1%; growth at 0.03 µM (MOLT-4 [19]): 96%; growth at 0.003 µM (RPMI-8226): 99%; growth at 0.003 µM (SN12C): 98%; growth at 0.3 µM (MDA-MB-468): 81%

From ChEMBL document CHEMBL2440076, “New triarylpyrazoles as broad-spectrum anticancer agents: design, synthesis, and biological evaluation” (Eur J Med Chem, 2013)
